Results from US12492173B2, “Herbicidal substituted N-tetrazolyl aryl carboxamides” (Bayer Aktiengesellschaft, priority 2019, dated 2025).

Experiments:
Assay type in all cases: in vivo
[1] = test system: Cyperus esculentus; experiment: Pre-emergence herbicidal action, CYPES; parameters: key: % activity: 100 = plants have died, 0 = like control plants; conditions: comparative experiment
Description: (§1) 1. Pre-Emergence Herbicidal Action Against Harmful Plants Seeds of monocotyledonous and dicotyledonous weed plants and crop plants are laid out in sandy loam soil in wood-fiber pots and covered with soil. The compounds of the invention, formulated in the form of wettable powders (WP) or as emulsion concentrates (EC), are then applied to the surface of the covering soil in the form of an aqueous suspension or emulsion at a water application rate equating to 600 to 800 l/ha, with addition of 0.2% wetting agent. After the treatment, the pots are placed in a greenhouse and kept under good growth conditions for the trial plants. The damage to the test plants is scored visually after a test period of 3 weeks by comparison with untreated controls (herbicidal activity in percent (%): 100% activity=the plants have died, 0% activity=like control plants). […] The tables below illustrate, in an exemplary manner, the […] herbicidal action of the compounds according to the invention, the herbicidal activity being stated in percent. [table] In the experiments that follow, herbicidal action of numerous inventive compounds and the known compounds that are structurally closest from D1 (WO 2012/028579 A1) and D2 (WO 2018/202535 A1) were compared under the above-specified conditions by the pre-emergence and post-emergence method. The example numbers given in the tables relate to the compounds disclosed in the respective documents. In addition to the compounds disclosed in D1 and D2, the following compounds V-1 to V-14 that are encompassed by D1 or D2 but are not compounds specified therein were used in the comparative experiments: • V-1: 2-(methylsulfanyl)-3-(methylsulfinyl)-N-(1-methyl-1H-tetrazol-5-yl)-4-(trifluoromethyl)benzamide • V-2: 2-(methylsulfanyl)-3-(methylsulfonyl)-N-(1-methyl-1H-tetrazol-5-yl)-4-(trifluoromethyl)benzamide • V-3: 2,3-bis(ethylsulfanyl)-N-(1-methyl-1H-tetrazol-5-yl)-4-(trifluoromethyl)benzamide • V-4: 2-chloro-3-(ethylsulfanyl)-N-(1-methyl-1H-tetrazol-5-yl)-4-(trifluoromethyl)benzamide • V-5: 2-chloro-4-iodo-3-(methylsulfanyl)-N-(1-methyl-1H-tetrazol-5-yl)benzamide • V-6: 2-chloro-4-iodo-3-(methylsulfinyl)-N-(1-methyl-1H-tetrazol-5-yl)benzamide • V-7: 2-chloro-4-iodo-3-(methylsulfonyl)-N-(1-methyl-1H-tetrazol-5-yl)benzamide • V-8: 2-bromo-3-(methylsulfanyl)-N-(1-methyl-1H-tetrazol-5-yl)-4-(trifluoromethyl)benzamide • V-9: 2-bromo-3-(methylsulfinyl)-N-(1-methyl-1H-tetrazol-5-yl)-4-(trifluoromethyl)benzamide • V-10: 2-bromo-3-(methylsulfonyl)-N-(1-methyl-1H-tetrazol-5-yl)-4-(trifluoromethyl)benzamide • V-11: 2-bromo-3-(ethylsulfanyl)-N-(1-methyl-1H-tetrazol-5-yl)-4-(trifluoromethyl)benzamide • V-12: 2-bromo-3-(ethylsulfinyl)-N-(1-methyl-1H-tetrazol-5-yl)-4-(trifluoromethyl)benzamide • V-13: 2-bromo-3-(ethylsulfonyl)-N-(1-methyl-1-1H-tetrazol-5-yl)-4-(trifluoromethyl)benzamide • V-14: 2-cyclopropyl-3-(ethylsulfanyl)-N-(1-methyl-1H-tetrazol-5-yl)-4-(trifluoromethyl)benzamide Herbicidal Pre-Emergence Action: […]

[2] = test system: Viola tricolor; experiment: Pre-emergence herbicidal action, VIOTR; parameters: key to Herbicidal action against VIOTR: % activity: 100 = plants have died, 0 = like control plants
Procedure, shortened: (§2)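 Percent damage, assessed visually after 3 weeks and referenced to untreated controls, reflects a pre-emergence treatment. Spray liquid equated to 600 to 800 l/ha with 0.2% wetting agent, applied to the covering soil over seeds in sandy loam.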

[3] = test system: Echinochloa crus-galli; experiment: Post-emergence herbicidal action, ECHCG; parameters: key: % herbicidal action vs untreated; 100 = plants died, 0 = like control; conditions: post-emergence, dosage 80 g/ha
Procedure, shortened: (§3)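 Percent herbicidal effect was rated visually about 3 weeks after treatment, relative to untreated plants (0% = like control, 100% = dead). Compounds, formulated as WP or EC, went on as aqueous spray (600–800 l/ha, 0.2% wetting agent) to one-leaf-stage plants 2–3 weeks post-sowing in sandy loam.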

[4] = test system: Stellaria media; experiment: Pre-emergence herbicidal action, STEME; conditions: dosage 320 g/ha, scored visually after 3 weeks vs untreated controls (100% = plants have died)
Procedure, shortened: as §2

[5] = test system: Abutilon theophrasti; experiment: Pre-emergence herbicidal action, ABUTH; parameters: key to Herbicidal action against ABUTH: % activity: 100 = plants have died, 0 = like control plants
Procedure, shortened: as §2

[6] = test system: Echinochloa crus-galli; experiment: Pre-emergence herbicidal action, ECHCG
Procedure, shortened: as §2

[7] = test system: Amaranthus retroflexus; experiment: Post-emergence herbicidal action, AMARE; parameters: key: % herbicidal action vs untreated; 100 = plants died, 0 = like control; conditions: post-emergence, dosage 80 g/ha
Procedure, shortened: as §3

[8] = test system: Hordeum murinum; experiment: Pre-emergence herbicidal action, HORMU; conditions: dosage 320 g/ha, scored visually after 3 weeks vs untreated controls (100% = plants have died)
Description: as §1

[9] = test system: Pharbitis purpurea; experiment: Post-emergence herbicidal action, PHBPU; conditions: post-emergence, dosage 80 g/ha
Procedure, shortened: as §3

[10] = test system: Setaria viridis; experiment: Post-emergence herbicidal action, SETVI; parameters: key: % herbicidal action vs untreated; 100 = plants died, 0 = like control; conditions: post-emergence
Procedure, shortened: as §3

[11] = test system: Abutilon theophrasti; experiment: Post-emergence herbicidal action, ABUTH; parameters: key: % herbicidal action vs untreated; 100 = plants died, 0 = like control; conditions: post-emergence
Procedure, shortened: as §3

[12] = test system: Amaranthus retroflexus; experiment: Pre-emergence herbicidal action, AMARE; parameters: key to Herbicidal action against AMARE: % activity: 100 = plants have died, 0 = like control plants
Procedure, shortened: as §2

[13] = test system: Polygonum convolvulus; experiment: Pre-emergence herbicidal action, POLCO
Procedure, shortened: as §2

[14] = test system: Setaria viridis; experiment: Pre-emergence herbicidal action, SETVI; parameters: key to Herbicidal action against SETVI: % activity: 100 = plants have died, 0 = like control plants
Procedure, shortened: as §2

[15] = test system: Matricaria inodora; experiment: Pre-emergence herbicidal action, MATIN; conditions: dosage 320 g/ha, scored visually after 3 weeks vs untreated controls (100% = plants have died)
Procedure, shortened: as §2

[16] = test system: Matricaria inodora; experiment: Post-emergence herbicidal action, MATIN; parameters: key: % herbicidal action vs untreated; 100 = plants died, 0 = like control; conditions: post-emergence, dosage 80 g/ha
Procedure, shortened: as §3

[17] = test system: Polygonum convolvulus; experiment: Post-emergence herbicidal action, POLCO; conditions: comparative experiment, post-emergence, 5 g of a.i./ha
Protocol: (§4) [table] 2. Post-Emergence Herbicidal Action Against Harmful Plants Seeds of monocotyledonous and dicotyledonous weed and crop plants are laid out in sandy loam soil in wood-fiber pots, covered with soil and cultivated in a greenhouse under good growth conditions. 2 to 3 weeks after sowing, the test plants are treated at the one-leaf stage. The compounds of the invention, formulated in the form of wettable powders (WP) or as emulsion concentrates (EC), are then sprayed onto the green parts of the plants in the form of an aqueous suspension or emulsion at a water application rate equating to 600 to 800 l/ha, with addition of 0.2% wetting agent. After the test plants have been left to stand in the greenhouse under optimal growth conditions for about 3 weeks, the action of the preparations is assessed visually in comparison to untreated controls (herbicidal action in percent (%): 100% activity=the plants have died, 0% activity=like control plants). […] The tables below illustrate, in an exemplary manner, the post-emergence herbicidal action of the compounds according to the invention, the herbicidal activity being stated in percent. In the experiments that follow, herbicidal action of numerous inventive compounds and the known compounds that are structurally closest from D1 (WO 2012/028579 A1) and D2 (WO 2018/202535 A1) were compared under the above-specified conditions by the pre-emergence and post-emergence method. The example numbers given in the tables relate to the compounds disclosed in the respective documents. In addition to the compounds disclosed in D1 and D2, the following compounds V-1 to V-14 that are encompassed by D1 or D2 but are not compounds specified therein were used in the comparative experiments: • V-1: 2-(methylsulfanyl)-3-(methylsulfinyl)-N-(1-methyl-1H-tetrazol-5-yl)-4-(trifluoromethyl)benzamide • V-2: 2-(methylsulfanyl)-3-(methylsulfonyl)-N-(1-methyl-1H-tetrazol-5-yl)-4-(trifluoromethyl)benzamide • V-3: 2,3-bis(ethylsulfanyl)-N-(1-methyl-1H-tetrazol-5-yl)-4-(trifluoromethyl)benzamide • V-4: 2-chloro-3-(ethylsulfanyl)-N-(1-methyl-1H-tetrazol-5-yl)-4-(trifluoromethyl)benzamide • V-5: 2-chloro-4-iodo-3-(methylsulfanyl)-N-(1-methyl-1H-tetrazol-5-yl)benzamide • V-6: 2-chloro-4-iodo-3-(methylsulfinyl)-N-(1-methyl-1H-tetrazol-5-yl)benzamide • V-7: 2-chloro-4-iodo-3-(methylsulfonyl)-N-(1-methyl-1H-tetrazol-5-yl)benzamide • V-8: 2-bromo-3-(methylsulfanyl)-N-(1-methyl-1H-tetrazol-5-yl)-4-(trifluoromethyl)benzamide • V-9: 2-bromo-3-(methylsulfinyl)-N-(1-methyl-1H-tetrazol-5-yl)-4-(trifluoromethyl)benzamide • V-10: 2-bromo-3-(methylsulfonyl)-N-(1-methyl-1H-tetrazol-5-yl)-4-(trifluoromethyl)benzamide • V-11: 2-bromo-3-(ethylsulfanyl)-N-(1-methyl-1H-tetrazol-5-yl)-4-(trifluoromethyl)benzamide • V-12: 2-bromo-3-(ethylsulfinyl)-N-(1-methyl-1H-tetrazol-5-yl)-4-(trifluoromethyl)benzamide • V-13: 2-bromo-3-(ethylsulfonyl)-N-(1-methyl-1-1H-tetrazol-5-yl)-4-(trifluoromethyl)benzamide • V-14: 2-cyclopropyl-3-(ethylsulfanyl)-N-(1-methyl-1H-tetrazol-5-yl)-4-(trifluoromethyl)benzamide Herbicidal Pre-Emergence Action: […]

[18] = test system: Viola tricolor; experiment: Post-emergence herbicidal action, VIOTR; parameters: key: % herbicidal action vs untreated; 100 = plants died, 0 = like control; conditions: comparative experiment, post-emergence, 20 g of a.i./ha
Procedure, shortened: as §3

[19] = test system: Veronica persica; experiment: Post-emergence herbicidal action, VERPE; parameters: key: % herbicidal action vs untreated; 100 = plants died, 0 = like control; conditions: comparative experiment, post-emergence, 20 g of a.i./ha
Procedure, shortened: as §3

[20] = test system: Veronica persica; experiment: Pre-emergence herbicidal action, VERPE; parameters: key to Herbicidal action against VERPE: % activity: 100 = plants have died, 0 = like control plants; conditions: comparative experiment, 80 g of a.i./ha
Procedure, shortened: as §2

[21] = test system: Stellaria media; experiment: Post-emergence herbicidal action, STEME; parameters: key: % herbicidal action vs untreated; 100 = plants died, 0 = like control; conditions: comparative experiment, post-emergence, 20 g of a.i./ha
Procedure, shortened: as §3

[22] = test system: Avena fatua; experiment: Post-emergence herbicidal action, AVEFA; parameters: key: % herbicidal action vs untreated; 100 = plants died, 0 = like control; conditions: comparative experiment, post-emergence, 20 g of a.i./ha
Protocol: as §4

[23] = test system: Alopecurus myosuroides; experiment: Post-emergence herbicidal action, ALOMY; parameters: key: % herbicidal action vs untreated; 100 = plants died, 0 = like control; conditions: comparative experiment, post-emergence, 20 g of a.i./ha
Protocol: as §4

[24] = dosage 320 g/ha, scored visually after 3 weeks vs untreated controls (100% = plants have died)
[25] = comparative experiment, 20 g of a.i./ha
[26] = comparative experiment, 80 g of a.i./ha

CSc1c(C(F)(F)F)ccc(C(=O)Nc2nnnn2C)c1Br [Example V-8, 2-bromo-3-(methylsulfanyl)-N-(1-methyl-1H-tetrazol-5-yl)-4-(trifluoromethyl)benzamide, reference compound]
Herbicidal action against CYPES ([1]; 20 g of a.i./ha): 0

CCn1nnnc1NC(=O)c1ccc(I)c(CSC)c1Cl [Example 2-362]
herbicidal activity VIOTR [2, 24]: 100% | Herbicidal action against ECHCG [3]: 100 | herbicidal activity STEME [4]: 100% | herbicidal activity ABUTH [5, 24]: 100% | herbicidal activity ECHCG [6, 24]: 100% | Herbicidal action against AMARE [7]: 100 | herbicidal activity HORMU [8]: 90% | Herbicidal action against PHBPU [9]: 90 | Herbicidal action against SETVI ([10]; dosage 80 g/ha): 90 | Herbicidal action against ABUTH ([11]; dosage 80 g/ha): 90 | herbicidal activity AMARE [12, 24]: 100% | herbicidal activity POLCO [13, 24]: 100% | herbicidal activity SETVI [14, 24]: 100% | herbicidal activity MATIN [15]: 100% | Herbicidal action against MATIN [16]: 100

CSc1c(C(=O)Nc2nnnn2C)ccc(C(F)(F)F)c1S(C)(=O)=O [Example V-2, 2-(methylsulfanyl)-3-(methylsulfonyl)-N-(1-methyl-1H-tetrazol-5-yl)-4-(trifluoromethyl)benzamide, reference compound]
pest or weed control at 20 g/ha ([6]; Echinochloa crus-galli, 504 h, comparative experiment, 20 g of a.i./ha, read-out: Herbicidal action against ECHCG): 50% | Herbicidal action against POLCO [17]: 0 | Herbicidal action against CYPES ([1]; 20 g of a.i./ha): 0 | Herbicidal action against POLCO [13, 25]: 0

CCSc1c(C(F)(F)F)ccc(C(=O)Nc2nnnn2C)c1Br [Example V-11, 2-bromo-3-(ethylsulfanyl)-N-(1-methyl-1H-tetrazol-5-yl)-4-(trifluoromethyl)benzamide, reference compound]
Herbicidal action against VIOTR [2, 26]: 80 | Herbicidal action against VIOTR [18]: 20 | Herbicidal action against ABUTH [5, 26]: 0 | Herbicidal action against VERPE [19]: 40 | pest or weed control at 80 g/ha ([6]; Echinochloa crus-galli, 504 h, comparative experiment, 80 g of a.i./ha, read-out: Herbicidal action against ECHCG): 0% | Herbicidal action against VERPE [20]: 10 | Herbicidal action against SETVI [10, 25]: 0 | Herbicidal action against CYPES ([1]; 80 g of a.i./ha): 0 | Herbicidal action against STEME [21]: 0 | Herbicidal action against ABUTH [11, 25]: 0 | Herbicidal action against AMARE [12, 26]: 0 | Herbicidal action against SETVI [14, 26]: 0 | Herbicidal action against AVEFA [22]: 0 | Herbicidal action against ALOMY [23]: 0
